Laboratory results reported in article PMC10781878, “AMWEst, a new thermostable and detergent-tolerant esterase retrieved from the Albian aquifer” (Applied Microbiology and Biotechnology, 2024).

Tested on: T1, AMWEst
T1 construct: primer keeps native start codon (predicted signal peptide 1-22, LHA-EQ); ultrafiltered extracellular medium, not purified; about 50 kDa on SDS-PAGE, probably N-glycosylated
Test: spectrophotometric p-nitrophenol release at […] nm, Lineweaver-Burk plot
Assay type: biochemical, uncultured bacterium
Conditions: 50 mM Tris/HCl pH 8.5, 40 mM CaCl2, 60 °C, 20 min; substrate 0.1-10 mM; concentrated extracellular medium of recombinant yeast

Km: 1020 µM
Compound: CCCCCCCCCCCC(=O)Oc1ccc([N+](=O)[O-])cc1 [pNP12, p-nitrophenyl laurate]
